A short description of data set [1]: Oral bioavailability in rat. The class given is ADME, organism-based. Particulars: in vivo.
The nature of data set [2]: Oral bioavailability in dog. It is filed as ADME, organism-based, Canis lupus familiaris. Conditions: in vivo.
In data set [3] the target is GABA-A receptor; alpha-1/beta-3/gamma-2 (Homo sapiens) (UniProt P14867+P18507+P28472). The data set is described as follows: Efficacy against human recombinant GABAA alpha-1 in combination with beta3gamma2 expressed in L(tk-) cells by whole cell patch clamp method. It is filed as functional, cell-based.
The subject of a further data set is Rattus norvegicus. Nature of the data set: Effect on activity impairment in rat chain pulling assay at 30 mg/kg, po. The class given is functional, organism-based. Also noted: dose 30 mg/kg.
Data set [4] can be described thus: Plasma clearance in rat. It is filed as ADME, organism-based.
A short description of data set [5]: Half life in dog. It is filed as ADME, organism-based, Canis lupus familiaris. Conditions: in vivo.
The target in data set [6] is GABA-A receptor; anion channel. Nature of the data set: Displacement of [3H]Ro-151788 from central benzodiazepine binding site in rat administered po. It is filed as functional.
The next data set relates to Squirrel monkey. Nature of the data set: Anxiolytic activity in squirrel monkey conditioned emotional response test at 3 mg/kg, po. The class given is functional, organism-based. Also noted: dose 3 mg/kg. Particulars: Saimiri sciureus.
Data set [7] is described as follows: Half life in rat. The class given is ADME, organism-based. Conditions: in vivo.
The target of data set [8] is T1, GABA-A receptor; alpha-2/beta-3/gamma-2 (Homo sapiens, UniProt P18507+P28472+P47869).
T1 sequence (P18507 whole entry): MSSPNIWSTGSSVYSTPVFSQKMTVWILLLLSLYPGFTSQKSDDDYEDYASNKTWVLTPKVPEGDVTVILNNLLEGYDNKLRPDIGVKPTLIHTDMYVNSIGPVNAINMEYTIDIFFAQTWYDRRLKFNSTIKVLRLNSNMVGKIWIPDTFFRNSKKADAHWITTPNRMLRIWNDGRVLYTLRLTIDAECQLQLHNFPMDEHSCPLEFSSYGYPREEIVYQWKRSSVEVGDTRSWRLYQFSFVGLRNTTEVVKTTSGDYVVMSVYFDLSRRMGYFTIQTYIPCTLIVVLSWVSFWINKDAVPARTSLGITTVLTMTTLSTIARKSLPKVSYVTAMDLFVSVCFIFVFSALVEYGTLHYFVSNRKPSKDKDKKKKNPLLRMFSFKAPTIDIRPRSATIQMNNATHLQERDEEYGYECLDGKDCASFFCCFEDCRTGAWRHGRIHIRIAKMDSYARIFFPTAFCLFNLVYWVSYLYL
T1 sequence (P28472 whole entry): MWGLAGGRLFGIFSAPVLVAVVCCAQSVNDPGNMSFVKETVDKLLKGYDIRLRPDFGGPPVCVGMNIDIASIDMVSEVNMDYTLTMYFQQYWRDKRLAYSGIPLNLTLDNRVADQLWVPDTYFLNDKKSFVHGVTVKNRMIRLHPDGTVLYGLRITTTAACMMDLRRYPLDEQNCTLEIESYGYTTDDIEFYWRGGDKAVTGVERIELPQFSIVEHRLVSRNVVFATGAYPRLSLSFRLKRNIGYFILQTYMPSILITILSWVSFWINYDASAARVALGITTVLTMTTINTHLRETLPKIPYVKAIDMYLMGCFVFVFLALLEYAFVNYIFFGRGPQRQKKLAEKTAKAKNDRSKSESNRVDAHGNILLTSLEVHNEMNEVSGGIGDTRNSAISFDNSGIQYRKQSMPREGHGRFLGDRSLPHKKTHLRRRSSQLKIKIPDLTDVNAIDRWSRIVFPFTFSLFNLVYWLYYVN
T1 sequence (P47869 whole entry): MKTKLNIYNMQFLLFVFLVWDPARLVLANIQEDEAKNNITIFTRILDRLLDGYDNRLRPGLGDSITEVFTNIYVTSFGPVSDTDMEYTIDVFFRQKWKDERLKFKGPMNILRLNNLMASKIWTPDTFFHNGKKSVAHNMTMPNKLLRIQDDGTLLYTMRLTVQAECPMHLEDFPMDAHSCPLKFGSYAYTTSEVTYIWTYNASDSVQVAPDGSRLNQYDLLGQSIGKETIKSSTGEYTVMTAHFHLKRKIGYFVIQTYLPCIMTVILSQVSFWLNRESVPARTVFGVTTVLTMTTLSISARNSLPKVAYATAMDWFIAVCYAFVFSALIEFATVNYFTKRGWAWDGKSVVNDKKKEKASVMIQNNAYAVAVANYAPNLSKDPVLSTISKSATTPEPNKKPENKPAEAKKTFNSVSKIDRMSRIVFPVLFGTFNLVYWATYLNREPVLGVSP
The data set is described as follows: Displacement of [3H]-Ro15-1788 from human recombinant GABAA alpha2 in combination with beta3gamma2 expressed in L(tk-) cells. It is filed as cell-based.

In data set [9] the target is T2, GABA-A receptor; alpha-5/beta-3/gamma-2 (Homo sapiens, UniProt P18507+P28472+P31644).
T2 sequence (P18507 whole entry): T1 sequence (P18507 whole entry)
T2 sequence (P28472 whole entry): T1 sequence (P28472 whole entry)
T2 sequence (P31644 whole entry): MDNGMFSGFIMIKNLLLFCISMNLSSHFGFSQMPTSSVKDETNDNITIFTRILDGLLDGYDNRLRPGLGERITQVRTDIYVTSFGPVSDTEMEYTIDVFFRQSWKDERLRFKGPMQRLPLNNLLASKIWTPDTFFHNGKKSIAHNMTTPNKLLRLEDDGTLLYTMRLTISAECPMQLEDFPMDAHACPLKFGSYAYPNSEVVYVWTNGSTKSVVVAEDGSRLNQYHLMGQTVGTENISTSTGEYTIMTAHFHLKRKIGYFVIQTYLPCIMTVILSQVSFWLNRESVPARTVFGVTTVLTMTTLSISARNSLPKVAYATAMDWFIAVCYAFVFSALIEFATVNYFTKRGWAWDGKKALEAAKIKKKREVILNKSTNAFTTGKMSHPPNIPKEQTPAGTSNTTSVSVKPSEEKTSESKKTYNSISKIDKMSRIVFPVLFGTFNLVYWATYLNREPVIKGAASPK
Nature of the data set: Displacement of [3H]Ro-151788 from human recombinant GABAA alpha5 in combination with beta3gamma2 expressed in L(tk-) cells. It is filed as cell-based.

For data set [10], the target named is T3, GABA-A receptor; alpha-1/beta-3/gamma-2 (Homo sapiens, UniProt P14867+P18507+P28472).
T3 sequence (P14867 whole entry): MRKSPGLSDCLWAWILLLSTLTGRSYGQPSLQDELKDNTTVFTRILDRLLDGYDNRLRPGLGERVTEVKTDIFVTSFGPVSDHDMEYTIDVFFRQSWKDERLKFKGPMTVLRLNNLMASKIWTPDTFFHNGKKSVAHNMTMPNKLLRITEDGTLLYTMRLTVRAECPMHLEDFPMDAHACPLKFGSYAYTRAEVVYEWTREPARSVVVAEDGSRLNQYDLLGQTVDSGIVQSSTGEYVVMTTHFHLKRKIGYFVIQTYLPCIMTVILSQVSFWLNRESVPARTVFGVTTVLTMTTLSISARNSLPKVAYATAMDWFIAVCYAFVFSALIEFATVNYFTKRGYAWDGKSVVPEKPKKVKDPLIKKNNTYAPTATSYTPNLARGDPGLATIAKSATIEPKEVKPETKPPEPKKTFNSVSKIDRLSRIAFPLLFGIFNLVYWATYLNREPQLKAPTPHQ
T3 sequence (P18507 whole entry): T1 sequence (P18507 whole entry)
T3 sequence (P28472 whole entry): T1 sequence (P28472 whole entry)
Nature of the data set: Displacement of [3H]-Ro15-1788 from human recombinant GABAA alpha1 in combination with beta-3-gamma-2 expressed in L(tk-) cells. The class given is cell-based.

Data set [11] addresses GABA-A receptor; alpha-3/beta-3/gamma-2 (Homo sapiens) (UniProt P18507+P28472+P34903). Nature of the data set: Efficacy against human recombinant GABAA alpha3 in combination with beta-3-gamma-2 expressed in L(tk-) cells by whole cell patch clamp method. The class given is functional, cell-based.
Data set [12] in a line: Plasma clearance in dog. It is filed as ADME, organism-based, Canis lupus familiaris.

SMILES strings stand for the structures. Calls of active or inactive are those of the source. No cut-off for these calls is given here.

Consider `N#Cc1cc(F)ccc1-c1cc(-c2cnc3nc(C(F)(F)F)ccn23)ccc1F`, for which the bioavailability worked out at 53% in data set [1] and 29% in [2]. Moreover, the Efficacy in data set [3] is -2%; in data set [11] it was 25%. Moreover, the result with Rattus norvegicus was inactive. Further, the clearance stood at 10.3 mL/min/kg in data set [4] and 2.9 mL/min/kg in data set [12]. The half-life in data set [5] was 1920 min; in data set [7], 438 min. In data set [6], this compound showed a half-maximal effective concentration (EC50) of 19 nM. Further, the result in the data set with Squirrel monkey was Active. The figures for the inhibitory constant (Ki) in [8], in data set [9] and in data set [10] were 1 nM, 0.5 nM and 1.2 nM, respectively.
For the compound `CC(C)(O)c1ccn2c(-c3ccc(F)c(-c4cccnc4)c3)cnc2n1`, the values for the bioavailability in data set [1] and in data set [2] were 77% and 48%, respectively. In addition, the Efficacy in [3] amounted to 6.2%; in data set [11], 57%. Moreover, the outcome with Rattus norvegicus was inactive. In addition, the values for the clearance in data set [4] and in data set [12] were 9.1 mL/min/kg and 8.2 mL/min/kg, respectively. Also, the results for the half-life in data set [5] and in data set [7] were 42 min and 102 min, respectively. The same compound showed a half-maximal effective concentration (EC50) in data set [6] of 580 nM. In addition, in the data set on Squirrel monkey, the result was Active. The Ki came to 3.7 nM in [8], 0.53 nM in data set [9] and 0.85 nM in data set [10].

These data come from ChEMBL document CHEMBL1148587, “Imidazo[1,2-a]pyrimidines as functionally selective and orally bioavailable GABA(A)alpha2/alpha3 binding site agonists for the treatment of anxiety disorders” (J Med Chem, 2006).
